Measured values from ChEMBL document CHEMBL5050844 (2019).

What was measured:
[1] = target: T1, E3 ubiquitin-protein ligase CBL-B (Homo sapiens, UniProt Q13191); assay: Inhibition of N-terminal Avi-tagged human CBL-B (36 to 427 residues) incubated with 30 nM Src kinase for 1.5 hrs followed by incubation with fluorescently labeled UbcH5B-Ub for 1 hr and measured by TR-FRET assay
[2] = target: T1, E3 ubiquitin-protein ligase CBL-B; assay: Binding affinity towards N-terminal biotinylated Avi-tagged human CBL-B (36 to 427 residues) measured by surface plasmon resonance assay
[3] = Induction of activation of human CD56+ CD3- NK cells co-cultured with human K562 cells in 1:1 ratio and assessed as increase in TNF-alpha secretion at 10 uM measured by ELISA assay; type: functional, Natural killer cell
[4] = Induction of activation of human CD56+ CD3- NK cells co-cultured with human K562 cells in 1:1 ratio and assessed as increase in TNF-alpha secretion at 1 uM measured by ELISA assay; type: functional, Natural killer cell
[5] = Induction of activation of human CD56+ CD3- NK cells co-cultured with human K562 cells in 1:1 ratio and assessed as increase in IFN-gamma secretion at 10 uM measured by ELISA assay; type: functional, Natural killer cell
[6] = Induction of activation of human CD56+ CD3- NK cells co-cultured with human K562 cells in 1:1 ratio and assessed as increase in IFN-gamma secretion at 1 uM measured by ELISA assay; type: functional, Natural killer cell
[7] = Induction of activation of human CD56+ CD3- NK cells co-cultured with human K562 cells in 5:1 ratio and assessed as increase in TNF-alpha secretion at 1 uM measured by ELISA assay; type: functional, Natural killer cell
[8] = Induction of activation of human CD56+ CD3- NK cells co-cultured with human K562 cells in 5:1 ratio and assessed as increase in TNF-alpha secretion at 10 uM measured by ELISA assay; type: functional, Natural killer cell
[9] = Induction of activation of human CD56+ CD3- NK cells co-cultured with human K562 cells in 1:1 ratio and assessed as increase in MIP1beta secretion at 1 uM measured by ELISA assay; type: functional, Natural killer cell
[10] = Induction of activation of human CD56+ CD3- NK cells co-cultured with human K562 cells in 5:1 ratio and assessed as increase in MIP1beta secretion at 10 uM measured by ELISA assay; type: functional, Natural killer cell
[11] = Induction of activation of human CD56+ CD3- NK cells co-cultured with human K562 cells in 5:1 ratio and assessed as increase in IFN-gamma secretion at 10 uM measured by ELISA assay; type: functional, Natural killer cell
[12] = Induction of activation of human CD56+ CD3- NK cells co-cultured with human K562 cells in 5:1 ratio and assessed as increase in IFN-gamma secretion at 1 uM measured by ELISA assay; type: functional, Natural killer cell
[13] = Induction of activation of human CD56+ CD3- NK cells co-cultured with human K562 cells in 5:1 ratio and assessed as increase in MIP1beta secretion at 1 uM measured by ELISA assay; type: functional, Natural killer cell
[14] = Induction of activation of human CD56+ CD3- NK cells co-cultured with human K562 cells in 1:1 ratio and assessed as increase in MIP1beta secretion at 10 uM measured by ELISA assay; type: functional, Natural killer cell
[15] = Induction of anti-CD3/CD28 antibodies-stimulated human T cell activation at 0.3 uM assessed fold increase in CD25 expression measured by ELISA assay; type: functional, T cell line
[16] = target: T1, E3 ubiquitin-protein ligase CBL-B; assay: Inhibition of N-terminal Avi-tagged human CBL-B (36 to 427 residues) incubated with 60 nM Src kinase for 1.5 hrs followed by incubation with fluorescently labeled UbcH5B-Ub for 1 hr and measured by TR-FRET assay; type: single protein
[17] = Induction of anti-CD3/CD28 antibodies-stimulated human T cell activation at 0.3 uM assessed fold increase in IL-2 secretion measured by ELISA assay; type: functional, T cell line
[18] = Induction of anti-CD3 antibodies-stimulated human T cell activation at 8 uM assessed fold increase in CD25 expression measured by ELISA assay; type: functional, T cell line; also: reference of the scale not given here
[19] = Induction of anti-CD3/CD28 antibodies-stimulated human T cell activation at 4 uM assessed fold increase in CD25 expression measured by ELISA assay; type: functional, T cell line
[20] = Induction of anti-CD3 antibodies-stimulated human T cell activation at 8 uM assessed fold increase in IL-2 secretion measured by ELISA assay; type: functional, T cell line; also: reference of the scale not given here
[21] = Induction of anti-CD3/CD28 antibodies-stimulated human T cell activation at 4 uM assessed fold increase in IL-2 secretion measured by ELISA assay; type: functional, T cell line
[22] = Induction of anti-CD3/CD28 antibodies-stimulated human T cell activation at 1 uM assessed fold increase in CD25 expression measured by ELISA assay; type: functional, T cell line
[23] = Induction of anti-CD3 antibodies-stimulated human T cell activation at 1 uM assessed fold increase in IL-2 secretion measured by ELISA assay; type: functional, T cell line; also: reference of the scale not given here
[24] = Induction of anti-CD3 antibodies-stimulated human T cell activation at 1 uM assessed fold increase in CD25 expression measured by ELISA assay; type: functional, T cell line; also: reference of the scale not given here
[25] = Induction of anti-CD3/CD28 antibodies-stimulated human T cell activation at 1 uM assessed fold increase in IL-2 secretion measured by ELISA assay; type: functional, T cell line

T1 sequence (Q13191 whole entry, the tested form may be a part): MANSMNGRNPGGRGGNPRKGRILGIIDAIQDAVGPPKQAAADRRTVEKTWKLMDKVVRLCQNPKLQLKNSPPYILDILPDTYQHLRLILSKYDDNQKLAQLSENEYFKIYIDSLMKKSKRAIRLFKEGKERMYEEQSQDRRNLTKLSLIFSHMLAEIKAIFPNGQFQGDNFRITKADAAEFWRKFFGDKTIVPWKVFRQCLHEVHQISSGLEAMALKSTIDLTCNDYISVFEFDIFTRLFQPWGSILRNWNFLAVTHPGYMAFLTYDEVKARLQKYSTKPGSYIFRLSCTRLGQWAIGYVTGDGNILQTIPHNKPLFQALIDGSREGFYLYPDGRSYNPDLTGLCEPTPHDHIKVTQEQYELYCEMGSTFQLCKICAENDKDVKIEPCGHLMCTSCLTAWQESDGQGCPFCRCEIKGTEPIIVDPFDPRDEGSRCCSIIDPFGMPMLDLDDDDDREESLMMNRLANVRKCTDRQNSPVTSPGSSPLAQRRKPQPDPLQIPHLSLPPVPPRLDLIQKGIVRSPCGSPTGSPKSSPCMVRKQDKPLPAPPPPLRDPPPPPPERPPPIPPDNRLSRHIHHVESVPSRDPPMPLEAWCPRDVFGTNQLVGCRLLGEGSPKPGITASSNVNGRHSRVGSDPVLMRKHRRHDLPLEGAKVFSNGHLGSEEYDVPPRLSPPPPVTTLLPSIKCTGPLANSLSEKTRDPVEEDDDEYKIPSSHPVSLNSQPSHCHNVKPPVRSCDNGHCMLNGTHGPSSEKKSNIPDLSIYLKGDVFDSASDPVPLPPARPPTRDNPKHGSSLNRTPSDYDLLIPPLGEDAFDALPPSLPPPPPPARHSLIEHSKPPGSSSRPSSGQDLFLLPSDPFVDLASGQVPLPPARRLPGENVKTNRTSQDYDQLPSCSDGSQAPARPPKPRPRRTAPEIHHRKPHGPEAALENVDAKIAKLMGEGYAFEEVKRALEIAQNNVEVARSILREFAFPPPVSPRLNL

Compound	IC50 [1]	Kd [2]	IC50 [16]	fold change (FC) [15]	fold change (FC) [17]	fold change (FC) [18]	fold change (FC) [19]	fold change (FC) [20]	fold change (FC) [21]	fold change (FC) [22]	fold change (FC) [23]	fold change (FC) [24]	fold change (FC) [25]	other results
C[C@@H](Sc1nncn1C)c1cccc(NC(=O)c2ccc3ccccc3n2)c1	> 10 µM	≥ 3 µM	–	–	–	–	–	–	–	–	–	–	–	fold change (FC) [3]: <=1; fold change (FC) [4]: <=1; fold change (FC) [5]: <=1; fold change (FC) [6]: <=1; fold change (FC) [7]: <=1; fold change (FC) [8]: <=1; fold change (FC) [9]: 1.01; fold change (FC) [10]: <=1; fold change (FC) [11]: <=1; fold change (FC) [12]: <=1; fold change (FC) [13]: <=1; fold change (FC) [14]: <=1
CC(Sc1nncn1C)c1cccc(NC(=O)c2ccc3ncccc3c2)c1 (stereo not drawn)	> 10 µM	> 10 µM	–	–	–	–	–	–	–	–	–	–	–	–
CC(Sc1nncn1C)c1cccc(NC(=O)c2ccc3ccccc3n2)c1 (stereo not drawn)	–	≥ 1 µM	≤ 1000 nM	<=1	1.01	0.601	1.01	0.051	2.51	<=1	<=0.05	<=0.6	1.01	Kd [1]: ≥ 1000 nM
CC(Sc1nncn1C)c1cccc(NC(=O)c2ccncn2)c1 (stereo not drawn)	> 10 µM	–	–	–	–	–	–	–	–	–	–	–	–	–
C[C@H](Cc1nncn1C)c1cccc(NC(=O)c2cc(C(=O)N3CC[C@H](O)C3)cc(C(F)(F)F)n2)c1	–	< 0.1 µM	< 100 nM	1.31	2.51	>=1.001	>=1.76	>=0.201	>=7.5	1.51	>=0.201	>=1.001	>=7.5	fold change (FC) [3]: 2.01; fold change (FC) [4]: 1.01; fold change (FC) [5]: 2.01; fold change (FC) [6]: 1.01; fold change (FC) [7]: 1.01; fold change (FC) [8]: 2.01; fold change (FC) [9]: 1.01; fold change (FC) [10]: 2.01; fold change (FC) [11]: 2.01; fold change (FC) [12]: 1.01; fold change (FC) [13]: 1.01; fold change (FC) [14]: 2.01

Second part, led by results:

IC50 [1]	Kd [2]	IC50 [16]	Compound	fold change (FC) [15]	fold change (FC) [17]	fold change (FC) [18]	fold change (FC) [19]	fold change (FC) [20]	fold change (FC) [21]	fold change (FC) [22]	fold change (FC) [23]	fold change (FC) [24]	fold change (FC) [25]	other results
> 10 µM	> 10 µM	–	COc1ccccc1C(=O)Nc1cccc(C(C)Sc2nncn2C)c1 (stereo not drawn)	–	–	–	–	–	–	–	–	–	–	–
> 10 µM	–	–	CC(Sc1nncn1C)c1cccc(NC(=O)c2ccc3cccnc3c2)c1 (stereo not drawn)	–	–	–	–	–	–	–	–	–	–	–
> 10 µM	–	–	Cc1ccc2cc(C(=O)Nc3cccc(C(C)Sc4nncn4C)c3)cnc2c1 (stereo not drawn)	–	–	–	–	–	–	–	–	–	–	–
≥ 3 µM	> 10 µM	–	C[C@H](Sc1nncn1C)c1ccnc(N)c1	–	–	–	–	–	–	–	–	–	–	–
≤ 1 µM	≥ 1 µM	≤ 1000 nM	C[C@H](Sc1nncn1C)c1cccc(NC(=O)c2ccc3ccccc3n2)c1	1.01	1.01	0.601	1.01	0.051	1.01	1.01	<=0.05	0.601	1.01	–
